Measured values published in PubChem BioAssay (NCI).
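How tested: cells in 96-well plates exposed to compound for 48 hours at five concentrations. GI50 marks 50% less growth. TGI marks complete inhibition of growth.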

Key:
Experiment in all cases: NCI anticancer screen, dose series, 48 h
A498 renal = tested on: A498 renal
K-562 leukemia = tested on: K-562 leukemia
OVCAR-8 ovarian = tested on: OVCAR-8 ovarian
HCC-2998 colon = tested on: HCC-2998 colon
HCT-116 colon = tested on: HCT-116 colon
RPMI-8226 leukemia = tested on: RPMI-8226 leukemia
MDA-MB-231 breast = tested on: MDA-MB-231 breast
HOP-92 NSCLC = tested on: HOP-92 NSCLC
LOX IMVI melanoma = tested on: LOX IMVI melanoma
MDA-MB-435 = tested on: MDA-MB-435
RXF 393 renal = tested on: RXF 393 renal
NCI-H522 lung = tested on: NCI-H522 lung
SNB-19 CNS = tested on: SNB-19 CNS
SK-OV-3 ovarian = tested on: SK-OV-3 ovarian
SNB-75 CNS = tested on: SNB-75 CNS
TK-10 renal = tested on: TK-10 renal
EKVX NSCLC = tested on: EKVX NSCLC
COLO 205 colon = tested on: COLO 205 colon
SK-MEL-5 melanoma = tested on: SK-MEL-5 melanoma
CCRF-CEM leukemia = tested on: CCRF-CEM leukemia
MOLT-4 leukemia = tested on: MOLT-4 leukemia
SK-MEL-2 melanoma = tested on: SK-MEL-2 melanoma
PC-3 prostate = tested on: PC-3 prostate
MCF7 breast = tested on: MCF7 breast
IGROV1 ovarian = tested on: IGROV1 ovarian
NCI-H23 lung = tested on: NCI-H23 lung
UACC-62 melanoma = tested on: UACC-62 melanoma
HCT-15 colon = tested on: HCT-15 colon
OVCAR-5 ovarian = tested on: OVCAR-5 ovarian
HT29 colon = tested on: HT29 colon
U251 CNS = tested on: U251 CNS
SR leukemia = tested on: SR leukemia
UACC-257 melanoma = tested on: UACC-257 melanoma
SW-620 colon = tested on: SW-620 colon
UO-31 renal = tested on: UO-31 renal
SK-MEL-28 melanoma = tested on: SK-MEL-28 melanoma
786-0 renal = tested on: 786-0 renal
NCI/ADR-RES ovarian = tested on: NCI/ADR-RES ovarian
HS 578T breast = tested on: HS 578T breast
SF-268 CNS = tested on: SF-268 CNS
DU-145 prostate = tested on: DU-145 prostate
CAKI-1 renal = tested on: CAKI-1 renal
ACHN renal = tested on: ACHN renal
SN12C renal = tested on: SN12C renal
NCI-H460 lung = tested on: NCI-H460 lung
OVCAR-4 ovarian = tested on: OVCAR-4 ovarian
A549 NSCLC = tested on: A549 NSCLC
M14 melanoma = tested on: M14 melanoma
KM12 colon = tested on: KM12 colon

**Q.** With `C#CC[C@@H]1C[C@]2(C)[C@H]3CC=C4[C@H]5[C@@H](C)[C@H](C)CC[C@]5(C(=O)NCCCCCCCCN)CC[C@@]4(C)[C@]3(C)CC[C@H]2C(C)(C)[C@H]1OC(C)=O` as the compound, how does the GI50 (A498 renal) read?
**A.** Its GI50 is 1.78 µM.

**Q.** What about the TGI (A498 renal) of the same compound?
**A.** The TGI was 3.21 µM.

**Q.** What about the GI50 (K-562 leukemia) of the same compound?
**A.** The GI50 was 2.02 µM.

**Q.** What about the TGI (K-562 leukemia) of the same compound?
**A.** Its TGI is 5.69 µM.

**Q.** What about the GI50 (OVCAR-8 ovarian) of the same compound?
**A.** Its GI50 is 2.15 µM.

**Q.** And the TGI (OVCAR-8 ovarian)?
**A.** The TGI was 5.01 µM.

**Q.** Which TGI (HCC-2998 colon) does the source give for `CC(NC(=O)C(N)CC(=O)O)C(=O)OC12CC3CC(CC(C3)C1)C2` (centres undefined) here?
**A.** The TGI was over 100 µM.

**Q.** What about the TGI (HCT-116 colon) of the same compound?
**A.** Its TGI is over 100 µM.

**Q.** What about the TGI (RPMI-8226 leukemia) of the same compound?
**A.** Its TGI is over 100 µM.

**Q.** What about the TGI (MDA-MB-231 breast) of the same compound?
**A.** Its TGI is over 100 µM.

**Q.** What about the TGI (HOP-92 NSCLC) of the same compound?
**A.** Its TGI is over 100 µM.

**Q.** And the TGI (LOX IMVI melanoma)?
**A.** The TGI was over 100 µM.

**Q.** What about the TGI (MDA-MB-435) of the same compound?
**A.** Its TGI is over 100 µM.

**Q.** What about the TGI (RXF 393 renal) of the same compound?
**A.** Its TGI is over 100 µM.

**Q.** What about the TGI (NCI-H522 lung) of the same compound?
**A.** Its TGI is over 100 µM.

**Q.** And the TGI (SNB-19 CNS)?
**A.** The TGI was over 100 µM.

**Q.** What about the TGI (SK-OV-3 ovarian) of the same compound?
**A.** The TGI was over 100 µM.

**Q.** What about the TGI (SNB-75 CNS) of the same compound?
**A.** The TGI was over 100 µM.

**Q.** And the TGI (TK-10 renal)?
**A.** The TGI was over 100 µM.

**Q.** What about the TGI (EKVX NSCLC) of the same compound?
**A.** The TGI was over 100 µM.

**Q.** What about the TGI (COLO 205 colon) of the same compound?
**A.** The TGI was over 100 µM.

**Q.** And the TGI (SK-MEL-5 melanoma)?
**A.** Its TGI is over 100 µM.

**Q.** And the TGI (CCRF-CEM leukemia)?
**A.** Its TGI is over 100 µM.

**Q.** What about the TGI (MOLT-4 leukemia) of the same compound?
**A.** The TGI was over 100 µM.

**Q.** What about the TGI (SK-MEL-2 melanoma) of the same compound?
**A.** The TGI was over 100 µM.

**Q.** What about the TGI (PC-3 prostate) of the same compound?
**A.** The TGI was over 100 µM.

**Q.** And the TGI (MCF7 breast)?
**A.** The TGI was over 100 µM.

**Q.** What about the TGI (IGROV1 ovarian) of the same compound?
**A.** The TGI was over 100 µM.

**Q.** And the TGI (NCI-H23 lung)?
**A.** Its TGI is over 100 µM.

**Q.** And the TGI (UACC-62 melanoma)?
**A.** Its TGI is over 100 µM.

**Q.** What about the TGI (HCT-15 colon) of the same compound?
**A.** The TGI was over 100 µM.

**Q.** What about the TGI (OVCAR-5 ovarian) of the same compound?
**A.** The TGI was over 100 µM.

**Q.** What about the TGI (HT29 colon) of the same compound?
**A.** The TGI was over 100 µM.

**Q.** What about the TGI (U251 CNS) of the same compound?
**A.** Its TGI is over 100 µM.

**Q.** And the TGI (SR leukemia)?
**A.** Its TGI is over 100 µM.

**Q.** And the TGI (UACC-257 melanoma)?
**A.** Its TGI is over 100 µM.

**Q.** And the TGI (SW-620 colon)?
**A.** The TGI was over 100 µM.

**Q.** And the TGI (UO-31 renal)?
**A.** Its TGI is over 100 µM.

**Q.** And the TGI (SK-MEL-28 melanoma)?
**A.** Its TGI is over 100 µM.

**Q.** And the TGI (786-0 renal)?
**A.** The TGI was over 100 µM.

**Q.** What about the TGI (NCI/ADR-RES ovarian) of the same compound?
**A.** Its TGI is over 100 µM.

**Q.** And the TGI (HS 578T breast)?
**A.** Its TGI is over 100 µM.

**Q.** What about the TGI (SF-268 CNS) of the same compound?
**A.** The TGI was over 100 µM.

**Q.** And the TGI (DU-145 prostate)?
**A.** Its TGI is over 100 µM.

**Q.** And the TGI (K-562 leukemia)?
**A.** The TGI was over 100 µM.

**Q.** And the TGI (OVCAR-8 ovarian)?
**A.** The TGI was over 100 µM.

**Q.** What about the TGI (CAKI-1 renal) of the same compound?
**A.** Its TGI is over 100 µM.

**Q.** And the TGI (ACHN renal)?
**A.** The TGI was over 100 µM.

**Q.** What about the TGI (SN12C renal) of the same compound?
**A.** The TGI was over 100 µM.

**Q.** What about the TGI (NCI-H460 lung) of the same compound?
**A.** Its TGI is over 100 µM.

**Q.** And the TGI (OVCAR-4 ovarian)?
**A.** Its TGI is over 100 µM.

**Q.** And the TGI (A549 NSCLC)?
**A.** Its TGI is over 100 µM.

**Q.** And the TGI (M14 melanoma)?
**A.** Its TGI is over 100 µM.

**Q.** What about the TGI (KM12 colon) of the same compound?
**A.** The TGI was over 100 µM.
